Test system: bovine sperm
Experiment: CASA motility of bovine sperm subpopulation with VCL >150 μm/s, sperm frozen with clofilium
Format: cell-based
Conditions: bovine sperm frozen with 0.2 μM clofilium, 24 h in capacitation medium with 0.2 μM clofilium, vs control
Description: However, only sperm presenting a sufficient velocity are able to cross the protective layers surrounding the egg and thus are competent for fertilizing eggs. To take this into account, sperm presenting a VCL >150 μm/s were selected and their velocity measured at different time (0 h and 24 h) in control condition or in the presence of clofilium. Sperm were frozen without clofilium (control) and with clofilium prior to test their motility. In the second case, clofilium was present during the sperm incubation period and during the capacitation period. Bovine ejaculate was split into two fractions, and diluted 1:1 in either Optixcell (Fraction 1) or Optixcell containing clofilium 0.2 μM (Fraction 2). After 10 minutes of 34° C. incubation, semen was then diluted to a final concentration of 57 million of spermatozoa/ml in Optixcell (Fraction 1) or Optixcell containing clofilium 0.2 μM (Fraction 2). Diluted semen was frozen as described above and stored in liquid nitrogen until in vitro fertilization. Thus, two types of straws were used: control straws and straws containing clofilium (0.2 μM ). Straws were thawed in a water-bath at 37° C. for 45 s. Each straw was wiped with 70° ethanol before opening. […] Spermatozoa presenting a VCL >150 μm/s were selected and their motility was measured using CASA, performed as above in control condition or in the presence of clofilium. […]

CCCCCCC[N+](CC)(CC)CCCCc1ccc(Cl)cc1 [clofilium]
motility (in terms of VCL) of sperm subpopulation with VCL >150 μm/s: higher mean velocity
